# According to patent US10918647B2, “Selective bromodomain inhibition of fungal Bdf1” (University of Southern California, priority 2016, dated 2021):
# What was measured:
# [1] = target: T1, CaBdf1 BD1 (Candida albicans, UniProt Q5A4W8); experiment: HTRF inhibition assay of BD binding to H4ac4 peptide
# T1 sequence (Q5A4W8 206-315 limits assumed): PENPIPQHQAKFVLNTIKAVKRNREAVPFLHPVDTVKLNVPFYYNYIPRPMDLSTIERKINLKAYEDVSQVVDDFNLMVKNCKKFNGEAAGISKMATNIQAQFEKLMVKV
# Text: (§1) FIG. 7. Homogeneous time-resolved fluorescence (HTRF) assay. a. Assay configuration. A biotinylated tetra-acetylated histone peptide is bound to streptavidin beads which are coupled to a terbium-based donor fluorophore, lumi-Tb cryptate. GST-tagged bromodomain is bound by an anti-GST antibody coupled to the acceptor fluorophore, an organic molecule termed D2. Peptide binding by the bromodomain brings the donor and acceptor within FRET distance. In this situation, excitation of the donor at 337 nm causes energy transfer to the […], whose emitted fluorescence is monitored at 665 nm in a time-resolved manner so as to eliminate transient background fluorescence. b-d.
# (§2) A key consideration in establishing fungal BET BD inhibition as a feasible chemotherapeutic strategy is whether these domains can be targeted by small-molecule inhibitors without antagonizing human BET function. To probe the similarity between the ligand binding pockets of C. albicans and human BET BDs, we asked whether human BET inhibitors could inhibit CaBdf1 BDs.
# [2] = test system: C. albicans; experiment: Growth of C. albicans in vitro (liquid culture growth assay); assay type: cell-based
# Text: FIG. 8. CaBdf1 BDs are insensitive to human BET inhibitors. (a) HTRF inhibition assays performed on BD1 and BD2 from CaBdf1 and human Brd4 to evaluate the effects of four human BET inhibitors. Inhibition curves are shown as closed (BD1) and open (BD2) circles in green (Brd4) and magenta (Bdf1). IC50 values are summarized below each graph. (b) Thermal stability of the indicated BET BDs in the presence and absence of BET inhibitors determined by differential scanning fluorimetry. The thermal shift (ΔTm) for each inhibitor is indicated. Curves obtained in the presence (thick lines) or absence (thin lines) are plotted for CaBDF1 BD1 (solid magenta), CaBDF1 BD2 (dashed magenta) and human Brd4 (green). […] Experiments have been performed in the presence of doxycycline, which represses the pTetO-BDF1 allele.
# FIG. 13. Identification of a CaBdf1-BD1 inhibitor that phenocopies BD1 inactivation. (a) Chemical structure of dibenzothiazepinone compound MS5. (b) HTRF assay showing that MS5 inhibits CaBdf1-BD1 preferentially over CaBdf1-BD2 and with weak selectivity compared to hBrd4-BD1. (c) ITC experiment showing binding of MS5 towards the indicated BD. (d) Effect of MS5 on the growth of C. albicans. The first allele is indicated below the graph, the second is pMET-BDF1 (top) orpTetO-BDF1 (bottom). Strains were grown in the presence of doxycycline or methionine/cysteine, respectively, to repress expression from the second allele. MS5 compromises growth when CaBdf1-BD2 is inactivated by deletion or point-mutation. Statistical test is a two-sided paired t-test performed on ≥5 biological replicates (*p=0.01 to 0.05; **p=0.001 to 0.01; ***p<0.001). (e) Dose-response experiment showing the effect of MS5 on Bdf1 mutant strains.
# We next tested the effect of the identified hit compounds on the growth of C. albicans in vitro. […] We therefore tested compounds that inhibited CaBdf1-BD1 with micromolar IC50 values but which were unselective or only weakly selective for the fungal BD.
# [3] = target: T1, CaBdf1 BD1; experiment: Isothermal titration calorimetry (ITC); assay type: binding, C. albicans
# [4] = target: T2, CaBdf1 BD2 (Candida albicans, UniProt Q5A4W8); experiment: Isothermal titration calorimetry (ITC); assay type: binding, C. albicans
# T2 sequence (Q5A4W8 383-492 limits assumed): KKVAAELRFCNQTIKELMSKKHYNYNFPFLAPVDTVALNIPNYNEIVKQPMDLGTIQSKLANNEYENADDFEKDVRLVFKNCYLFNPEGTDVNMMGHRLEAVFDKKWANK
# [5] = target: T2, CaBdf1 BD2; experiment: HTRF inhibition assay of BD binding to H4ac4 peptide; conditions: for inhibition of CaBdf1 BD2: HTRF
# Text: as §1, with “b-d. Binding of biotinylated tetra-acetylated H4 (H4ac4) peptide by the BD1 bromodomains from human Brd4 (b), S. cerevisiae Bdf1 (c) and C. albicans Bdf1 (d) as measured by an increase in HTRF signal with increasing peptide concentration.” for “b-d.”
# as §2
# [6] = target: Brd4 BD1 (Homo sapiens, UniProt O60885); experiment: Isothermal titration calorimetry (ITC); assay type: binding
structure (smiles),measurement,setting,value
"COc1cc2c(cc1-c1c(C)noc1C)ncc1[nH]c(=O)n([C@H](C)c3ccccn3)c12 [IBET-151, reference compound]",reduction in sensitivity relative to Brd4,[1]; CaBdf1 BD1 vs corresponding Brd4 BD,60 fold
same,IC50,"[1]; HTRF, strongest inhibition",~0.3 µM
same,effect on C. albicans growth,"[2]; even when Bdf1 bromodomains are deleted, in the presence of doxycycline (represses pTetO-BDF1 allele)",do not affect
same,effect on the growth of C. albicans in vitro,[2],none of the BET inhibitors had any significant effect
"Cc1sc2c(c1C)C(c1ccc(Cl)cc1)=N[C@@H](CC(=O)OC(C)(C)C)c1nnc(C)n1-2 [JQ1, reference compound]",binding (ITC),[3]; ITC,no binding was detected
same,binding (ITC),[4]; ITC,no binding was detected
O=C1c2ccccc2Sc2cc(-c3noc(-c4cnccn4)n3)ccc2N1C1CC1 [MS4],inhibition of CaBdf1 BD2,[5],only modest inhibition
same,binding (ITC),[6],no significant binding was detected
same,effect on the growth of C. albicans in vitro,[2],little effect
"CN1C(=O)c2ccccc2Sc2cc(NC(=O)C3CCCO3)ccc21 (centres unmarked) [MS5, N-(10-methyl-11-oxo-10,11-dihydrodibenzo[b,f][1,4]thiazepin-7-yl)tetrahydrofuran-2-carboxamide]",inhibition of CaBdf1 BD2,[5],only a weak inhibitory effect
same,Kd / affinity,[3]; ITC (MS5: HTRF and ITC assays),low micromolar
same,IC50,"[2]; Candida albicans, read-out: IC50 (growth dose-response curve)",40 µM
same,effect on growth compared to vehicle (DMSO),"[2]; liquid culture, strains expressing WT Bdf1 or mutant Bdf1 inactivated in the first BD",little effect
same,effect on growth,[2]; strains inactivated in BD2,significantly compromised
"Cc1ccc(Nc2c(-c3ccc(O)cc3)nc3c(C)cccn23)cc1 [MS51, 4-(8-Methyl-3-(p-tolylamino)imidazo[1,2-a]pyridin-2-yl)phenol]",selectivity relative to BD1 of either CaBdf1 or human Brd4,[5],high selectivity
same,Kd,"[4]; HTRF and ITC assays, read-out: affinity",1 to 2 µM
"CCOC(=O)Nc1cc(-c2ccc(C)c(NS(C)(=O)=O)c2)nn2c(C)nnc12 [bromosporine, reference compound]",IC50,[5],~0.3 µM
